{"source": "patent US20060233873A1", "about": "“Dispersion of taste masked crystals or granules of active substances, chewable soft capsules filled with said dispersion, and process for preparing same” (priority 2003, published 2006)", "assay": "Solubility of the active in lipophilic vehicles at 25° C., HPLC method", "conditions": "oil or lipid", "procedure": "In this example, lipophilic vehicles with different solubilizing powers for dextromethorphan HBr were tested."}
{"compound": "COc1ccc2c(c1)[C@]13CCCC[C@@H]1[C@H](C2)N(C)CC3", "note": "[dextromethorphan HBr]", "values": [{"measurement": "solubility", "setting": "in Dimethicone 100 silicone oil", "result": "< 1", "unit": "µg/mL"}, {"measurement": "solubility", "setting": "in medium chain triglycerides Mygliol 812N", "result": 120, "unit": "µg/mL"}, {"measurement": "solubility", "setting": "in paraffin oil", "result": "~1", "unit": "µg/mL"}, {"measurement": "solubility", "setting": "in soya oil", "result": "~6", "unit": "µg/mL"}]}
